From US12370158B2, “Analogs of CYP-eicosanoids for use in treating or preventing a disorder associated with neovascularization and/or inflammation” (OMEICOS Therapeutics GmbH, priority 2016, dated 2025)

Key:
[1] = Ocular pharmacokinetics of Comp-02 after oral administration in rabbit; type: in vivo, pigmented HY79b rabbits; settings: for Comp-02 content (below lower limit of detection): oral; for Cmax / Tmax / AUC / half-life: male, pigmented HY79b, rabbit; for Cmax: single oral 2 mg/kg (0.2 mg/mL); for Tmax / AUC / half-life: single oral 2 mg/kg; for AUC: read-out: AUC1-48 hours; for half-life: calculated from the Tmax value
Method: (§1) Study design: To gain insight into the distribution behaviour of synthetic 17,18-EEQ-agonists, ocular pharmacokinetic studies were performed in pigmented HY79b rabbits. Briefly, 15 male rabbits per administration route were anesthetized at the time-points for sampling indicated in tables 2-4 by an intramuscular injection of a mixed solution of xylazine and ketamine. Blood collection was performed by cardiac puncture in K3EDTA tubes and centrifuged at 2000 g, 10 min at 4° C. Approximately 3 mL of plasma were sampled, put in plastic tubes, snap frozen in liquid nitrogen and stored at −80° C. until assay. Then animals were euthanized by intracardiac injection of overdosed pentobarbital. This method is one of the recommended methods for euthanasia by the European authorities (French decree No. 2013-118, dated Feb. 1, 2013 publishing the European directive 2010/63/UE. J.Offic. Rp. Fr. 2013; Text 24 out of 130). Immediately after euthanasia, samples from both eyes were quickly and carefully taken, put in plastic tubes, weighed, snap frozen in liquid nitrogen and stored at −80° C. until assay. Content of Comp-02 was determined in ocular samples and plasma following an established RRLCMS/MS method. The results are presented in Tables 5-7 and are expressed as mean values for the different pharmacokinetic parameters. Chromatogram integration was done using MassHunter software. Apparent Cmax and Tmax, T½, AUC1-48 h were calculated by Excel® software. Concentrations were expressed in ng/g or ng/mL of tissue/eye compartment.

[2] = Ocular pharmacokinetics of Comp-02 after topical administration (instillation) in rabbit; type: in vivo, pigmented HY79b rabbits; settings: male, pigmented HY79b, topical or ocular, 50 μl of 1 mg/mL in both eyes; for Cmax: single instillation 50 μl (1 mg/mL) in both eyes; for Tmax / half-life / AUC: topical; for half-life: calculated from the Tmax value; for AUC: read-out: AUC1-48 hours
Method: as §1

[3] = Ocular pharmacokinetics of Comp-02 after intravitreal injection in rabbit; type: in vivo, pigmented HY79b rabbits; settings: for AUC / Tmax / half-life / Cmax: male, pigmented HY79b; for AUC / Tmax / half-life: intravitreal; for AUC: read-out: AUC1-48 hours; for half-life: calculated from the Tmax value; for Cmax: topical or ocular, single vitreal injection of 50 μl (1 mg/mL) in both eyes
Method: as §1

HL-1 cells = assay: Viability of LPS-challenged HL-1 cardiomyocytes; type: cell-based, mouse; settings: 10 nM, 100 nM or 1 μM, 1 μg/mL LPS, 24 h
Method: (§2) A cardiomyocyte cell line was used (mouse derived immortalized cardiomyocytes, HL-1 cells). Cells were either treated with vehicle (0.01% ethanol) or different concentrations of test compound (Comp-02: cE=10 nM, 100 nM or 1 μM). Simultaneously, the cells were challenged with 1 μg/mL lipopolysaccharide (LPS). After 24 h of incubation, the cells were processed to measure viability.
as §2, with “In order to investigate the anti-inflammatory potential of compounds being part of the invention in vitro, a cardiomyocyte” for “A cardiomyocyte”, “measure viability (FIG. 2) and release of the pro-inflammatory cytokine TNF alpha (FIG. 3).” for “measure viability.”

[4] = system: TNF alpha release from the HL-1 cells; assay: TNF alpha release from HL-1 cardiomyocytes; type: cell-based, mouse; settings: 24 h
Method: as §2, with “release of the pro-inflammatory cytokine TNF alpha.” for “viability.”
as §2, with “In order to investigate the anti-inflammatory potential of compounds being part of the invention in vitro, a cardiomyocyte” for “A cardiomyocyte”, “measure viability (FIG. 2) and release of the pro-inflammatory cytokine TNF alpha (FIG. 3).” for “measure viability.”

[5] = system: double transgenic rats (dTGR), cardiac tissue; assay: Cardiac inflammation (ED1 macrophage infiltration) in dTGR rat model of severe hypertension and end-organ damage; type: in vivo; settings: 1.33 mg/kg twice daily by gavage for 21 days, compared to vehicle treated dTGRs
From the text: (§3) The aim of this study was to assess and compare the effect of continuous oral treatment of a metabolically robust analog of 17,18-EEQ (Comp-02) or vehicle (isotonic salt solution) on physiological parameters, clinical chemistry and end-organ damage in male double transgenic rats (dTGR). Non-treated Sprague-Dawley rats (SD) of same genetic background were used as control. Double transgenic rats, overexpressing the human renin and angiotensinogen genes, develop severe hypertension and are a model for Ang-II induced end-organ damage with cardiac hypertrophy and kidney failure. Moreover, the dTGR model features severe […], cardiac hypertrophy and nephrosclerosis with marked fibrosis and inflammation.
(§4) Before start of the experiment the animals were randomly assigned to either compound or vehicle treatment. […] Comp-02 was prepared in 61.6 ppm Na2CO3 and 0.9% NaCl ready to use solution for application, while dTGR animals were dosed twice daily with 0.9% NaCl ready to use solution for vehicle control. […] Samples were analysed using a Zeiss Axioplan-2 imaging microscope with the digital image-processing program AxioVision 4.8. […] Data were expressed as sum of 20 randomly chosen view fields, non-overlapping fields per section. […]

[6] = system: double transgenic rats (dTGR), renal tissue; assay: Renal inflammation (ED1 macrophage infiltration) in dTGR rat model of severe hypertension and end-organ damage; type: in vivo; settings: 1.33 mg/kg twice daily by gavage for 21 days, compared to vehicle treated dTGRs
From the text: as §3, §4

[7] = Ocular pharmacokinetics of Comp-02 after topical administration (instillation) in rabbit; type: in vivo, pigmented HY79b rabbits; settings: checked by ophthalmoscopy
[8] = Ocular pharmacokinetics of Comp-02 after intravitreal injection in rabbit; type: in vivo, pigmented HY79b rabbits; settings: ocular examination with a slit lamp
[9] = other: intravitreal injection, 50 μl of 1 mg/mL in both eyes, vitreous
[10] = other: intravitreal, 50 µg/eye, choroid
[11] = other: intravitreal, 50 µg/eye, plasma
[12] = other: intravitreal, 50 µg/eye, retina

CNC(=O)C(=O)NCCCC/C=C\CCCCCCCOCC(=O)O [Comp-02, 2-((13-(2-(methylamino)-2-oxoacetamido)tridec-8(Z)-en-1-yl)oxy)acetic acid]
Comp-02 content (below lower limit of detection) ([1]; aqueous humor samples, except for one out of 15 animals): < 0.1 ng/10 μl injected | Cmax ([1]; aqueous humor): 8 ng/mL | Tmax ([1]; aqueous humor): 1 h | AUC ([1]; aqueous humor): 12 ng·h/mL | Cmax ([1]; choroid): 246 ng/g | Tmax ([1]; choroid): 1 h | half-life ([1]; choroid): 540 min | AUC ([1]; choroid): 1390 ng·h/mL | Cmax ([1]; plasma): 1210 ng/mL | Tmax ([1]; plasma): 1 h | half-life ([1]; plasma): 360 min | AUC ([1]; plasma): 6330 ng·h/mL | Cmax ([1]; retina): 15 ng/g | Tmax ([1]; retina): 4 h | Comp-02 content (below lower limit of detection) ([1]; retina samples, except for two out of 15 animals): < 0.1 ng/10 μl injected | Cmax ([2]; aqueous humor): 88 ng/mL | Tmax ([2]; aqueous humor): 1 h | half-life ([2]; aqueous humor): 60 min | AUC ([2]; aqueous humor): 324 ng·h/mL | Cmax ([2]; choroid): 79 ng/g | Tmax ([2]; choroid): 1 h | half-life ([2]; choroid): 42 min | Cmax ([2]; plasma): 31 ng/mL | Tmax ([2]; plasma): 0.5 h | half-life ([2]; plasma): 324 min | AUC ([2]; plasma): 262 ng·h/mL | Cmax ([2]; retina): 24 ng/g | Tmax ([2]; retina): 1 h | Ocular exposure in the posterior eye, comparison of routes ([3]; intravitreal injection compared to oral and topical administration): highest ocular exposures | AUC ([3]; other: intravitreal injection, 50 μl of 1 mg/mL in both eyes, choroid): 63300 ng·h/mL | AUC ([3]; other: intravitreal injection, 50 μl of 1 mg/mL in both eyes, plasma): 287 ng·h/mL | AUC ([3]; other: intravitreal injection, 50 μl of 1 mg/mL in both eyes, retina): 79900 ng·h/mL | Tmax [3, 9]: 1 h | AUC [3, 9]: 55400 ng·h/mL | Tmax [3, 10]: 1 h | half-life [3, 10]: 144 min | Tmax [3, 11]: 2 h | half-life [3, 11]: 252 min | Tmax [3, 12]: 1 h | half-life [3, 12]: 156 min | half-life ([3]; other: intravitreal, 50 µg/eye, vitreous): 276 min | Cmax ([3]; 50 μl of 1 mg/mL in both eyes, choroid): 15000 ng/g | Cmax ([3]; 50 μl of 1 mg/mL in both eyes, plasma): 19 ng/mL | Cmax ([3]; 50 μl of 1 mg/mL in both eyes, retina): 10100 ng/g | Cmax ([3]; 50 μl of 1 mg/mL in both eyes, vitreous): 6650 ng/mL | Effect on LPS-induced reduction in cell viability (cytotoxic effect) (HL-1 cells): dose-dependently reversed | LPS-induced TNF alpha release ([4]; 10 nM, 100 nM or 1 μM, 1 μg/mL LPS): significantly and dose-dependently reduced | Influence on TNF alpha production, compound alone ([4]; Comp-02 alone (no LPS)): did not have an influence | Macrophage infiltration (ED1 positive cells) in cardiac tissue [5]: significant reduction | Macrophage infiltration (ED1 positive cells) in renal tissue [6]: significant reduction | Macroscopic tolerability of the Comp-02 formulation [7]: very well tolerated | Macroscopic tolerability of the Comp-02 formulation [8]: very well tolerated
